# Experimental data published in the supplement of paper PMC11061612.
# Columns and labels:
# [1] = compound: COc1cc2ncnc(Nc3ccc(F)c(Cl)c3)c2cc1OCCCN1CCOCC1 [Gefitinib]; conditions: max 10 µM
# Summary of the method: (§1)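 In 1536-well plates, cancer cell lines in 7.5 μl DMEM/F12 or RPMI with 10% FBS spent 24 hours at 37°C and 5% CO2 and were then dosed for 72 hours with final DMSO typically 0.2%. Viability was read by CellTiter-Glo 2.0 luminescence and scaled between blank-well and DMSO-well means. The single-agent IC50 was fitted from dose responses using a logistic curve in a non-linear mixed effects model, and that logistic curve had two parameters.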
# [2] = compound: C=CCn1c(=O)c2cnc(Nc3ccc(N4CCN(C)CC4)cc3)nc2n1-c1cccc(C(C)(C)O)n1 [AZD1775]; conditions: max 3 µM
# Summary of the method: as §1
# [3] = compound: C1CN(CCC1(C(=O)N[C@@H](CCO)C2=CC=C(C=C2)Cl)N)C3=NC=NC4=C3C=CN4 [Capivasertib]; conditions: max 10 µM
# Summary of the method: as §1
# [4] = compound: COc1cccc(OCCCN)c1-c1cc(Nc2cnc(C#N)cn2)n[nH]1 [Prexasertib]; conditions: max 1 µM
# Summary of the method: as §1
# [5] = compound: CC1=C(C(=CC=C1)Cl)NC(=O)C2=CN=C(S2)NC3=CC(=NC(=N3)C)N4CCN(CC4)CCO [Dasatinib]; conditions: max 2 µM
# Summary of the method: as §1
# [6] = compound: COc1cc(Nc2ncc3c(n2)-c2ccc(Cl)cc2C(c2c(F)cccc2OC)=NC3)ccc1C(=O)O [Alisertib]; conditions: max 10 µM
# Summary of the method: as §1
# [7] = compound: COc1cccc2c1C(=O)c1c(O)c3c(c(O)c1C2=O)C[C@@](O)(C(=O)CO)C[C@@H]3O[C@H]1C[C@H](N)[C@H](O)[C@H](C)O1 [Doxorubicin]; conditions: max 1 µM
# Summary of the method: as §1
# [8] = compound: Cc1c2c(nn1C)CSCc1cc(n(C)n1)CSc1cc(c3ccccc3c1)OCCCc1c(C(=O)O)n(C)c3c-2c(Cl)ccc13 [AZD5991]; conditions: max 1 µM
# Summary of the method: as §1
# [9] = compound: CC(=O)c1c(C)c2cnc(Nc3ccc(N4CCNCC4)cn3)nc2n(C2CCCC2)c1=O [Palbociclib]; conditions: max 10 µM
# Summary of the method: as §1
# [10] = compound: CC(C)n1c(=O)n(C)c2cnc3cc(F)c(-c4ccc(OCCCN5CCCCC5)nc4)cc3c21 [AZD1390]; conditions: max 0.3 µM
# Summary of the method: as §1
# [11] = compound: C[C@@H](Nc1cc(F)cc(F)c1)c1cc(C(=O)N(C)C)cc2c(=O)cc(N3CCOCC3)oc12 [AZD8186]; conditions: max 3 µM
# Summary of the method: as §1
# [12] = compound: CCN(CCO)CCCOc1ccc2c(Nc3cc(CC(=O)Nc4cccc(F)c4)[nH]n3)ncnc2c1 [AZD2811]; conditions: max 1 µM
# Summary of the method: as §1
# [13] = compound: C[C@@H]1COCCN1C2=NC(=NC(=C2)C3(CC3)[S@](=N)(=O)C)C4=C5C=CNC5=NC=C4 [AZD6738]; conditions: max 10 µM
# Summary of the method: as §1
# [14] = compound: CN(C)CCCOc1ccc(-c2ccc3ncc4c(c3c2)n(C2CCOCC2)c(=O)n4C)cn1 [AZD0156]; conditions: max 3 µM
# Summary of the method: as §1
# [15] = compound: Cc1nc(-c2cn3c(n2)-c2ccc(-c4cnn(C(C)(C)C(N)=O)c4)cc2OCC3)n(C(C)C)n1 [Taselisib]; conditions: max 10 µM
# Summary of the method: as §1
# [16] = compound: CC(=O)Nc1cccc(-n2c(=O)n(C3CC3)c(=O)c3c(Nc4ccc(I)cc4F)n(C)c(=O)c(C)c32)c1 [Trametinib]; conditions: max 1 µM
# Summary of the method: as §1
# [17] = compound: O=C(c1cc(Cc2n[nH]c(=O)c3ccccc23)ccc1F)N1CCN(C(=O)C2CC2)CC1 [Olaparib]; conditions: max 10 µM
# Summary of the method: as §1
# [18] = compound: C[C@@H](c1ccc2nccn2c1)n1nnc2ncc(-c3cnn(C)c3)nc21 [Savolitinib]; conditions: max 1 µM
# Summary of the method: as §1
# [19] = compound: CC1(C)CCC(CN2CCN(c3ccc(C(=O)NS(=O)(=O)c4ccc(NCC5CCOCC5)c([N+](=O)[O-])c4)c(Oc4cnc5[nH]ccc5c4)c3)CC2)=C(c2ccc(Cl)cc2)C1 [Venetoclax]; conditions: max 1 µM
# Summary of the method: as §1
# [20] = compound: CCc1c2c(nc3ccc(O)cc13)-c1cc3c(c(=O)n1C2)COC(=O)[C@]3(O)CC [SN-38]; conditions: max 0.3 µM
# Summary of the method: as §1
# [21] = compound: C[C@@H](Oc1cc(-c2cnn(C3CCNCC3)c2)cnc1N)c1c(Cl)ccc(F)c1Cl [Crizotinib]; conditions: max 10 µM
# Summary of the method: as §1
# [22] = compound: CN(CC[C@H](CSC1=CC=CC=C1)NC2=C(C=C(C=C2)S(=O)(=O)NC(=O)C3=CC=C(C=C3)N4CCC(CC4)[C@H](C5=CC=CC=C5C6=CC=C(C=C6)Cl)O)S(=O)(=O)C(F)(F)F)CCO [AZD4320]; conditions: max 1 µM
# Summary of the method: as §1
# [23] = compound: Cn1cnc2c(F)c(Nc3ccc(Br)cc3Cl)c(C(=O)NOCCO)cc21 [Selumetinib]; conditions: max 10 µM
# Summary of the method: as §1
# [24] = compound: CS(=O)(=O)CCNCc1ccc(-c2ccc3ncnc(Nc4ccc(OCc5cccc(F)c5)c(Cl)c4)c3c2)o1 [Lapatinib]; conditions: max 10 µM
# Summary of the method: as §1
# [25] = compound: COc1nnc2ccc(N3CCC(c4ccc(OCCN5CCN(C)C(=O)[C@H]5C)cc4)CC3)nn12 [AZD5153]; conditions: max 1 µM
# Summary of the method: as §1
# [26] = compound: Cc1cc2ncnn2cc1Nc1ncc2c(n1)n(C1CCOCC1)c(=O)n2C [AZD7648]; conditions: max 10 µM
# Summary of the method: as §1
# [27] = compound: CC1=CN2[C@@H](C1)C=NC3=CC(=C(C=C3C2=O)OC)OCCCCCOC4=C(C=C5C(=C4)N=C[C@@H]6CC(=CN6C5=O)C)OC [SG3199]; conditions: max 0.001 µM
# Summary of the method: as §1
# [28] = compound: NC1(c2ccc(-c3nc4ccn5c(=O)[nH]nc5c4cc3-c3ccccc3)cc2)CCC1 [MK-2206]; conditions: max 10 µM
# Summary of the method: as §1
Cell Line,"IC50, cell viability 72 h [1] [µM]","IC50, cell viability 72 h [2] [µM]","IC50, cell viability 72 h [3] [µM]","IC50, cell viability 72 h [4] [µM]","IC50, cell viability 72 h [5] [µM]","IC50, cell viability 72 h [6] [µM]","IC50, cell viability 72 h [7] [µM]","IC50, cell viability 72 h [8] [µM]","IC50, cell viability 72 h [9] [µM]","IC50, cell viability 72 h [10] [µM]","IC50, cell viability 72 h [11] [µM]","IC50, cell viability 72 h [12] [µM]","IC50, cell viability 72 h [13] [µM]","IC50, cell viability 72 h [14] [µM]","IC50, cell viability 72 h [15] [µM]","IC50, cell viability 72 h [16] [µM]","IC50, cell viability 72 h [17] [µM]","IC50, cell viability 72 h [18] [µM]","IC50, cell viability 72 h [19] [µM]","IC50, cell viability 72 h [20] [µM]","IC50, cell viability 72 h [21] [µM]","IC50, cell viability 72 h [22] [µM]","IC50, cell viability 72 h [23] [µM]","IC50, cell viability 72 h [24] [µM]","IC50, cell viability 72 h [25] [µM]","IC50, cell viability 72 h [26] [µM]","IC50, cell viability 72 h [27] [µM]","IC50, cell viability 72 h [28] [µM]"
HCC-827 (Lung Adenocarcinoma),0.0842,> 3,> 10,0.465,0.13,> 10,> 1,> 1,> 10,> 0.3,> 3,> 1,> 10,> 3,8.54,> 1,> 10,> 1,> 1,> 0.3,> 10,> 1,> 10,3,> 1,> 10,> 0.001,
KG-1 (Acute Myeloid Leukemia),> 10,0.662,> 10,0.0458,> 2,0.774,> 1,0.0837,> 10,> 0.3,> 3,> 1,5.63,> 3,> 10,> 1,> 10,> 1,0.55,0.0132,> 10,0.0969,> 10,> 10,0.216,> 10,> 0.001,
JHH-6 (Hepatocellular Carcinoma),> 10,> 3,> 10,> 1,> 2,> 10,> 1,> 1,> 10,> 0.3,> 3,> 1,> 10,> 3,> 10,> 1,> 10,> 1,> 1,> 0.3,> 10,> 1,> 10,> 10,0.922,> 10,> 0.001,
ETK-1 (Biliary Tract Carcinoma),> 10,1.02,> 10,0.563,0.58,6.57,> 1,> 1,> 10,> 0.3,> 3,> 1,6.85,> 3,3.33,> 1,> 10,> 1,> 1,0.227,> 10,> 1,> 10,6.78,> 1,> 10,> 0.001,> 10
TYK-nu (Ovarian Carcinoma),> 10,0.763,> 10,0.0572,> 2,> 10,> 1,> 1,> 10,> 0.3,> 3,> 1,5.37,> 3,> 10,0.301,> 10,> 1,> 1,0.0108,> 10,> 1,4.36,> 10,0.28,> 10,> 0.001,> 10
647-V (Bladder Carcinoma),> 10,0.812,> 10,0.174,> 2,> 10,0.24,0.961,> 10,> 0.3,> 3,> 1,> 10,> 3,> 10,> 1,> 10,> 1,> 1,0.00235,> 10,> 1,> 10,> 10,> 1,> 10,> 0.001,
RCC10RGB (Kidney Carcinoma),7.99,2.62,> 10,0.851,0.435,3.46,> 1,> 1,> 10,> 0.3,1.01,> 1,> 10,> 3,3.25,0.753,> 10,> 1,> 1,0.101,> 10,> 1,> 10,> 10,> 1,> 10,> 0.001,
NCI-H1688 (Small Cell Lung Carcinoma),> 10,2.54,> 10,0.533,> 2,> 10,> 1,> 1,> 10,> 0.3,> 3,> 1,> 10,> 3,8.31,> 1,> 10,> 1,> 1,> 0.3,> 10,> 1,> 10,> 10,> 1,> 10,> 0.001,> 10
